We go through 21 molecules from US5238825A, “Preparation and use of a cyclodextrinase for preparing maltooligosaccharides” (Kikkoman Corporation, priority 1989, dated 1993).

Like-named read-outs stand apart in the source and are kept apart here.

Test [1] addresses T1, cyclodextrinase (Lysinibacillus sphaericus, UniProt Q08341).
T1 construct: is cultured in a medium to yield and accumulate said cyclodextrinase, and this enzyme is collected from the culture; made in house; host or cells: Bacillus sphaericus E-244 (FERM BP-2458), the natural wild-type producer strain; not recombinant
T1 sequence (Q08341 1-591): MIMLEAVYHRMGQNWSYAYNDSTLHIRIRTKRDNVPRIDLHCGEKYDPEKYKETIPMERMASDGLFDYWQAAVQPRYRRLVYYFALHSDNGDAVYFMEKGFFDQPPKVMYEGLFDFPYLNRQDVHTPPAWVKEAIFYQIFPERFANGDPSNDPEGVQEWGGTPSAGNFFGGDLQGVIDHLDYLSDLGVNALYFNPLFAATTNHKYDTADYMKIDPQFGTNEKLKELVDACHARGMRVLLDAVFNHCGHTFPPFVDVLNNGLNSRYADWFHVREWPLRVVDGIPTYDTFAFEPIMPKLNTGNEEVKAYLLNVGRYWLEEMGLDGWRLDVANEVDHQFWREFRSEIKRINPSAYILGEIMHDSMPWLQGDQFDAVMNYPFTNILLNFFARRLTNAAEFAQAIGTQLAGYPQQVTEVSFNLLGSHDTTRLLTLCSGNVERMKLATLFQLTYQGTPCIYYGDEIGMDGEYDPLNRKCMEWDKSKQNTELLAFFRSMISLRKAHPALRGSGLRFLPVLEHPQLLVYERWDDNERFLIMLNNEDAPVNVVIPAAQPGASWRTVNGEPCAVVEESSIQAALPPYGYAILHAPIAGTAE
Nature of the test: Influence of metal ions on the activity of the present enzyme. In kind it is biochemical, Bacillus sphaericus. Particulars: for Residual activity: ions added, final conc. 1 mM, none = 100. As for the experimental part:
(§1) When the amount of the enzyme was small, the reducing power of the enzyme was determined according to Nelson-Somogyi's method, with glucose as standard.

Test [2] addresses T1, cyclodextrinase. Nature of the test: Reaction rate parameters of the present enzyme for cyclodextrins and maltooligosaccharides. In kind it is biochemical, Bacillus sphaericus. Set-up: Vmax: unit not given here. Particulars: for Relative value: Vmax/Km relative to β-cyclodextrin = 1.00. The method, then:
as §1

The target of test [3] is T1, cyclodextrinase. Nature of the test: Substrate specificity of the present cyclodextrinase (relative hydrolysis rate). It counts as biochemical, Bacillus sphaericus. The method, then: as §1
Test [4] relates to cyclodextrinase. Particulars: Bacillus coagulans enzyme, prior literature; cited from earlier work.
Test [5] relates to cyclodextrinase. Particulars: Bacillus macerans enzyme, prior literature; cited from earlier work.
[6] abbreviates: substrate conc. 2 mM, β-cyclodextrin = 100.
[7] abbreviates: substrate conc. 0.1%, β-cyclodextrin (2 mM) = 100.

As to `[Ca+2]` [Ca^2+], in test [1], the “activation of the enzyme by metal ion” value is 10-30% and the Residual activity was determined as 138.2%. Take `[Cu+2]` [Cu^2+]: the Residual activity in test [1] came to 2.8%.

On to `[Fe+3]` [Fe^3+], for which the Residual activity in test [1] came out at 41.6%; in test [1] (listed as Fe^2+), 4.6%. In the case of `[Hg+2]` [Hg^2+], the Residual activity in test [1] came to 0.0%. Regarding `OC[C@H]1O[C@H](O[C@H]2[C@H](O)[C@@H](O)[C@@H](O[C@H]3[C@H](O)[C@@H](O)[C@@H](O[C@H]4[C@H](O)[C@@H](O)[C@@H](O[C@H]5[C@H](O)[C@@H](O)[C@@H](O[C@H]6[C@H](O)[C@@H](O)[C@@H](O[C@H]7[C@H](O)[C@@H](O)C(O)O[C@@H]7CO)O[C@@H]6CO)O[C@@H]5CO)O[C@@H]4CO)O[C@@H]3CO)O[C@@H]2CO)[C@H](O)[C@@H](O)[C@@H]1O` (some centres unmarked) [Maltoheptaose], in test [2], the Vmax is 0.060 and the Relative value is listed as 0.30. Moreover, in test [3] (setting [6]), the Relative hydrolysis rate came out at 66%.

Regarding `OC[C@H]1O[C@H](O[C@H]2[C@H](O)[C@@H](O)[C@@H](O[C@H]3[C@H](O)[C@@H](O)[C@@H](O[C@H]4[C@H](O)[C@@H](O)[C@@H](O[C@H]5[C@H](O)[C@@H](O)[C@@H](O[C@H]6[C@H](O)[C@@H](O)C(O)O[C@@H]6CO)O[C@@H]5CO)O[C@@H]4CO)O[C@@H]3CO)O[C@@H]2CO)[C@H](O)[C@@H](O)[C@@H]1O` (some centres unmarked) [Maltohexaose], in test [2], the Vmax is given as 0.075 and the Relative value was found to be 0.23. Also, in test [4], the Km is 1.5 mM. This molecule had a Relative hydrolysis rate in test [3] (setting [6]) of 43%. `OC[C@H]1O[C@H](O[C@H]2[C@H](O)[C@@H](O)[C@@H](O[C@H]3[C@H](O)[C@@H](O)[C@@H](O[C@H]4[C@H](O)[C@@H](O)[C@@H](O[C@H]5[C@H](O)[C@@H](O)C(O)O[C@@H]5CO)O[C@@H]4CO)O[C@@H]3CO)O[C@@H]2CO)[C@H](O)[C@@H](O)[C@@H]1O` (some centres unmarked) [Maltopentaose]: in test [2], the Vmax amounted to 0.073 and the Relative value is 0.27. In test [3] (setting [6]), the Relative hydrolysis rate is reported as 49%. For `OC[C@H]1O[C@H](O[C@H]2[C@H](O)[C@@H](O)[C@@H](O[C@H]3[C@H](O)[C@@H](O)[C@@H](O[C@H]4[C@H](O)[C@@H](O)C(O)O[C@@H]4CO)O[C@@H]3CO)O[C@@H]2CO)[C@H](O)[C@@H](O)[C@@H]1O` (some centres unmarked) [Maltotetraose], in test [2], the Vmax was 0.067 and the Relative value came out at 0.15. Consider `[Mg+2]` [Mg^2+], for which, in test [1], the “activation of the enzyme by metal ion” value is 10-30% and the Residual activity was 111.3%. On to `[Mn+2]` [Mn^2+], for which the Residual activity in test [1] turned out to be 59.3%. On to `[Ni+2]` [Ni^2+], for which the Residual activity in test [1] is reported as 0.9%.

On to `[Zn+2]` [Zn^2+], for which the Residual activity in test [1] came to 0.0%. Take `OC[C@H]1O[C@@H]2O[C@H]3[C@H](O)[C@@H](O)[C@@H](O[C@H]4[C@H](O)[C@@H](O)[C@@H](O[C@H]5[C@H](O)[C@@H](O)[C@@H](O[C@H]6[C@H](O)[C@@H](O)[C@@H](O[C@H]7[C@H](O)[C@@H](O)[C@@H](O[C@H]1[C@H](O)[C@H]2O)O[C@@H]7CO)O[C@@H]6CO)O[C@@H]5CO)O[C@@H]4CO)O[C@@H]3CO` [α-cyclodextrin]: in test [2], the Vmax stood at 0.074 and the Relative value was found to be 0.36. For the same molecule, the Km in test [4] is 10 mM. Further, in test [5], the Km is 2.62 mM. The Relative hydrolysis rate in test [3] (setting [6]) is given as 44%. As for `OC[C@H]1O[C@@H]2O[C@H]3[C@H](O)[C@@H](O)[C@@H](O[C@H]4[C@H](O)[C@@H](O)[C@@H](O[C@H]5[C@H](O)[C@@H](O)[C@@H](O[C@H]6[C@H](O)[C@@H](O)[C@@H](O[C@H]7[C@H](O)[C@@H](O)[C@@H](O[C@H]8[C@H](O)[C@@H](O)[C@@H](O[C@H]1[C@H](O)[C@H]2O)O[C@@H]8CO)O[C@@H]7CO)O[C@@H]6CO)O[C@@H]5CO)O[C@@H]4CO)O[C@@H]3CO` [β-cyclodextrin], the Vmax in test [2] was 0.110. The molecule also gave a Relative value in test [2] of 1.00. The Km in test [4] is 2.8 mM; in test [5] it was 2.65 mM. In addition, the Relative hydrolysis rate in test [3] (setting [6]) was 100%.

Take `OC[C@H]1O[C@@H]2O[C@H]3[C@H](O)[C@@H](O)[C@@H](O[C@H]4[C@H](O)[C@@H](O)[C@@H](O[C@H]5[C@H](O)[C@@H](O)[C@@H](O[C@H]6[C@H](O)[C@@H](O)[C@@H](O[C@H]7[C@H](O)[C@@H](O)[C@@H](O[C@H]8[C@H](O)[C@@H](O)[C@@H](O[C@H]9[C@H](O)[C@@H](O)[C@@H](O[C@H]1[C@H](O)[C@H]2O)O[C@@H]9CO)O[C@@H]8CO)O[C@@H]7CO)O[C@@H]6CO)O[C@@H]5CO)O[C@@H]4CO)O[C@@H]3CO` [γ-cyclodextrin]: in test [2], the Vmax worked out at 0.039 and the Relative value is on record as 0.09. Amylopectin came in with a Relative hydrolysis rate in test [3] (setting [7]) of 0.7%. On the same count and under the same terms, with Amylose [Amylose (G18)] the figure was 44%; with Amylose [Amylose (G99)], 3.7%; with Dextran, 11%. For Pullulan, the Relative hydrolysis rate in test [3] (setting [7]) was 1.5%.

Regarding Starch, the Relative hydrolysis rate in test [3] (setting [7]) is 2.9%.

As a reminder, the Km is the concentration of substrate that gives half-maximal velocity.
